≈ marks a conversion by molar mass, not a printed value. Read-outs that look alike come from different tables or passages of the source. Each block holds one compound with its values, some of them ahead of it.
Columns and labels:
[1] = tested on: carbapenem sensitive Pseudomonas aeruginosa; experiment: MIC by broth micro-dilution (CLSI), carbapenem sensitive P. aeruginosa; format: cell-based
[2] = tested on: methicillin-sensitive Staphylococcus aureus; experiment: MIC by broth micro-dilution (CLSI), methicillin-sensitive S. aureus; format: cell-based; conditions: MSSA S. aureus ATCC29213
[3] = tested on: carbapenem sensitive Escherichia coli; experiment: MIC by broth micro-dilution (CLSI), carbapenem sensitive E. coli; format: cell-based
[4] = tested on: carbapenemase producing K. pneumoniae; experiment: MIC by broth micro-dilution (CLSI), carbapenemase producing K. pneumoniae; format: cell-based, Klebsiella pneumoniae
[5] = Pseudomonas aeruginosa, ATCC27853, Meropenem susceptible P. aeruginosa ATCC27853, read-out: MIC
[6] = Staphylococcus aureus, ATCC 29213 / MSSA, read-out: MIC
[7] = Escherichia coli, ATCC25922, ESBL −ve E. coli ATCC25922, read-out: MIC
[8] = Klebsiella pneumoniae, ATCCBAA1705, KPC-2 K. pneumoniae ATCC BAA-1705, read-out: MIC

SMILES: COCCNCC(=O)N[C@H](C)[C@H]1C(=O)N2C(C(=O)O)=C(S[C@@H]3CN[C@H](C(=O)N(C)C)C3)[C@H](C)[C@H]12 [Example 518, (4R,5S,6R)-3-((3S,5S)-5-(dimethylcarbamoyl)pyrrolidin-3-ylthio)-6-((R)-1-(2-(2-methoxyethylamino)acetamido)ethyl)-4-methyl-7-oxo-1-azabicyclo[3.2.0]hept-2-ene-2-carboxylic acid]
- MIC [1, 5]: 128 µg/mL (≈ 257 µM)
- MIC [2, 6]: 8 µg/mL (≈ 16.1 µM)
- MIC [3, 7]: 1 µg/mL (≈ 2.01 µM)
- MIC [4, 8]: 4 µg/mL (≈ 8.04 µM)

SMILES: CNC[C@@H]1CCCN1CC(=O)N[C@H](C)[C@H]1C(=O)N2C(C(=O)O)=C(S[C@@H]3CN[C@H](C(=O)N(C)C)C3)[C@H](C)[C@H]12 [Example 520, (4R,5S,6R)-3-((3S,5S)-5-(dimethylcarbamoyl)pyrrolidin-3-ylthio)-4-methyl-6-((R)-1-(2-((S)-2-((methylamino)methyl)pyrrolidin-1-yl)acetamido)ethyl)-7-oxo-1-azabicyclo[3.2.0]hept-2-ene-2-carboxylic acid]
- MIC [1, 5]: > 128 µg/mL
- MIC [2, 6]: 16 µg/mL (≈ 29.8 µM)
- MIC [3, 7]: 2 µg/mL (≈ 3.73 µM)
- MIC [4, 8]: 16 µg/mL (≈ 29.8 µM)

SMILES: C[C@@H](NC(=O)Cn1cnnn1)[C@H]1C(=O)N2C(C(=O)O)=C(S[C@@H]3CN[C@H](C(=O)N4CC[C@@H](N)[C@H]4CO)C3)[C@H](C)[C@H]12 [Example 523, (4R,5S,6R)-6-((R)-1-(2-(1H-tetrazol-1-yl)acetamido)ethyl)-3-((3S,5S)-5-((2S,3R)-3-amino-2-(hydroxymethyl)pyrrolidine-1-carbonyl)pyrrolidin-3-ylthio)-4-methyl-7-oxo-1-azabicyclo[3.2.0]hept-2-ene-2-carboxylic acid]
- MIC ([1]; Meropenem susceptible P. aeruginosa ATCC27853): 1 µg/mL (≈ 1.77 µM)
- MIC [2]: 2 µg/mL (≈ 3.55 µM)
- MIC ([3]; ESBL −ve E. coli ATCC25922): 0.125 µg/mL (≈ 0.222 µM)
- MIC ([4]; KPC-2 K. pneumoniae ATCC BAA-1705): 1 µg/mL (≈ 1.77 µM)

Now from value to compound:

- MIC [1, 5]: 16 µg/mL (≈ 35.6 µM)
- MIC [2, 6]: 2 µg/mL (≈ 4.45 µM)
- MIC [3, 7]: 0.25 µg/mL (≈ 0.556 µM)
- MIC [4, 8]: 1 µg/mL (≈ 2.22 µM)
SMILES: C[C@@H](NC(=O)Cn1cnnn1)[C@H]1C(=O)N2C(C(=O)O)=C(SC3CN(C(=N)N)C3)[C@H](C)[C@H]12 [Example 515, (4R,5S,6R)-6-((R)-1-(2-(1H-tetrazol-1-yl)acetamido)ethyl)-3-(1-carbamimidoylazetidin-3-ylthio)-4-methyl-7-oxo-1-azabicyclo[3.2.0]hept-2-ene-2-carboxylic acid]

- MIC [1, 5]: 2 µg/mL (≈ 3.65 µM)
- MIC [2, 6]: 2 µg/mL (≈ 3.65 µM)
- MIC [3, 7]: 0.25 µg/mL (≈ 0.457 µM)
- MIC [4, 8]: 2 µg/mL (≈ 3.65 µM)
SMILES: C[C@@H](NC(=O)Cn1cnnn1)[C@H]1C(=O)N2C(C(=O)O)=C(S[C@@H]3CN[C@H](C(=O)N4CCCNCC4)C3)[C@H](C)[C@H]12 [Example 516, (4R,5S,6R)-3-((3S,5S)-5-(1,4-diazepane-1-carbonyl)pyrrolidin-3-ylthio)-6-((R)-1-(2-(1H-tetrazol-1-yl)acetamido)ethyl)-4-methyl-7-oxo-1-azabicyclo[3.2.0]hept-2-ene-2-carboxylic acid]

- MIC [1, 5]: 4 µg/mL (≈ 6.78 µM)
- MIC [2, 6]: 4 µg/mL (≈ 6.78 µM)
- MIC [3, 7]: 0.5 µg/mL (≈ 0.848 µM)
- MIC [4, 8]: 2 µg/mL (≈ 3.39 µM)
SMILES: C[C@@H](NC(=O)Cn1cnnn1)[C@H]1C(=O)N2C(C(=O)O)=C(S[C@@H]3CN[C@H](C(=O)N4CCCN(C(=N)N)CC4)C3)[C@H](C)[C@H]12 [Example 517, (4R,5S,6R)-6-((R)-1-(2-(1H-tetrazol-1-yl)acetamido)ethyl)-3-((3S,5S)-5-(4-carbamimidoyl-1,4-diazepane-1-carbonyl)pyrrolidin-3-ylthio)-4-methyl-7-oxo-1-azabocyclo[3.2.0]hept-2-ene-2-carboxylic acid]

- MIC [1, 5]: 1 µg/mL (≈ 1.77 µM)
- MIC [2, 6]: 4 µg/mL (≈ 7.1 µM)
- MIC [3, 7]: 0.25 µg/mL (≈ 0.444 µM)
- MIC [4, 8]: 2 µg/mL (≈ 3.55 µM)
SMILES: C[C@@H](NC(=O)Cn1cnnn1)[C@H]1C(=O)N2C(C(=O)O)=C(S[C@@H]3CN[C@H](C(=O)N4CC[C@@H](N)[C@H]4CO)C3)[C@H](C)[C@H]12 [Example 522, (4R,5S,6R)-6-((R)-1-(2-(1H-tetrazol-1-yl)acetamido)ethyl)-3-((3S,5S)-5-((2S,3R)-3-amino-2-(hydroxymethyl)pyrrolidine-1-carbonyl)pyrrolidin-3-ylthio)-4-methyl-7-oxo-1-azabicyclo[3.2.0]hept-2-ene-2-carboxylic acid]

Source: patent publication US11180504B2 (ORCHID PHARMA LTD., priority 2016, dated 2021)
